# Data from patent US11266710B2, “Angio-3 for treatment of retinal angiogenic diseases” (SINGAPORE HEALTH SERVICES PTE LTD, priority 2017, dated 2022).
# System: laser-induced CNV in C57/BL6J (B6J) wild type mice
# Assay: Laser-induced choroidal neovascularization (CNV) model in mice, area of leakage by FFA
# Format: in vivo
# Conditions: for Area of Leakage (mean) Week 1 / Area of Leakage (mean) Week 4: laser-induced CNV mice; for % Reduction (area of leakage): vehicle control = 0%
# Experimental: FIG. 3A is a schematic of the experimental design on the efficacy of Angio-3 in a laser-induced choroidal neovascularization (CNV) model in mice (B6J WT mice). FIG. 3B are FFA images of baseline and at different time points post treatment. IV single injection of 100 μL of Angio-3 (25 mg/Kg Bwt) was given at Day 0 (prevention mode) and 4 days after laser (regression mode) and followed for 10 weeks. FIG. 3C is a graph showing the area of leakage by each eye for various groups. FIG. 3D are graphs of the mean area of leakage of all batches for each group. […] The attenuation retinal vascularization was better than scrambled peptide. n=6 eyes per batch; n=3 batches. Values are expressed as means±s.e.m., **P<0.01, *P<0.05, student's t-test. FIG. 3E is a graph of the result of the Retinal Function Test that measures ERG changes in Angio-3 treated and control.
# FIG. 4A is a schematic of the experimental design on the efficacy of Angio-3 by IVT administration. […]
# FIG. 11 A are FFA images of baseline and at different time points post treatment. Mice received single IVT injection of Angio-3 (at a dose of 1 μg in 1 μl or 100 ng in 1 μl), and chemically modified Angio-3 peptides Pep-N (at doses of 5 μg in μl; 1 μg in μl; and 100 ng in 1 μl, respectively) and Pep-Q peptides (at doses of 5 μg in μl; 1 μg in μl; and 100 ng in 1 μl, respectively). FIG. 11 B is a graph of the area of leakage by each eye. Single dose attenuates retinal angiogenesis in laser-induced mice CNV model via IVT route till 4 weeks. […] Eylea is the positive control. n=18 eyes per group; Values are expressed as means±s.e.m. n=3 independent experiment, **P<0.01, *P<0.05, student's t-test.
# Laser induced choridal neo-vascularization (CNV) in C57/BL6J (B6J) wild type mice (n=90).
# In B6J mice, single injection of 100 μl volume at 25 mg/kg Bwt concentration Angio-3 was injected via intravenous (i/v) route and this was tested in both Preventive mode (before laser) and Regression mode (4 days after laser). […]
# Angio-3 was also injected via intravitreal (IVT) route, single injection of 1 μl volume at 2 different doses; 1 μg (High dose) and 100 ng (Low dose).
# 4 laser photocoagulation sites were placed concentrically around the optic disc of both eyes to induce CNVs. A diode laser (810 nm) was used with a relative potency scale of 120 mW for mice and 250 mW for rats, an exposure time of 0.05 s, and a spot size of […]. Laser spots were focused with crystal covers to avoid laser beam dispersion. Bubble formation was confirmed the rupture of Bruch's membrane.
# Fundus photography and fundus fluorescein angiography (FFA) was imaged using a MICRON IV fundus camera (Phoenix Laboratories USA). For FFA, animals were intraperitoneally injected with 10% sodium fluorescein at a dose of 0.01 ml per 5-6 gm body weight.
# In B6J mice, single intravitreous (IVT) injection of 100 ng, 1 μg, 5 μg PEP-Q, PEP-N (modified Angio-3), Angio-3 and Eylea were executed and this was tested in Prevention mode (before laser) Method of Llser induced CNV model and injection was described as above.
# [1] = 100 ng single IVT, prevention mode
# [2] = 1 μg single IVT, prevention mode
# [3] = 5 μg single IVT, prevention mode
substance,measurement,setting,value
"Eylea: Eylea (anti-VEGF), positive control; clinical compound [reference compound]",Area of Leakage (mean) Week 1,[1],10273.37
same,Area of Leakage (mean) Week 4,[1],3433.52
same,% Reduction (area of leakage),100 ng single IVT,28.40%
same,Area of Leakage (mean) Week 1,[2],12502.09
same,Area of Leakage (mean) Week 4,[2],3005.85
same,% Reduction (area of leakage),1 μg single IVT,37.77%
same,Area of Leakage (mean) Week 1,[3],11724.39
same,Area of Leakage (mean) Week 4,[3],1834.08
same,% Reduction (area of leakage),5 μg single IVT,46.17%
same,choroidal angiogenesis,"B6J mice, single intravitreal injection at dose 100 ng, 1 g, and 5 μg, prevention mode",superior efficacy that is similar to PEP-Q and PEP-N
